Among the data in patent US20230391760A1, “HETEROCYCLIC GLP-1 AGONISTS” (Gasherbrum Bio, Inc., priority 2020, published 2023) are EC50 values, retold here.

SMILES strings stand for the structures.

This assay addresses GLP-1 Receptor (Homo sapiens, UniProt P43220). In words: GLP-1R agonist cAMP stimulation assay (HEK293/GLP1R/CRE-LUC cells, cAMP dynamic 2 Kit). The class given is cell-based. Conditions: HEK293/CRE-Luc cell line stably expressing the GLP-1 Receptor, 30 min at 37° C. The method in brief: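 HEK293 cells stably expressing human GLP-1R with CRE-luciferase, 1000 cells/well in DPBS with 0.5 mM IBMX and 0.1% BSA, treated with compound in 1/2-log serial dilution for 30 min at 37 °C. cAMP then detected by HTRF (cAMP-d2 plus anti-cAMP cryptate), 1 h at room temperature in the dark.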

GLP-1 Receptor, sequence (P43220 24-463, species assumed): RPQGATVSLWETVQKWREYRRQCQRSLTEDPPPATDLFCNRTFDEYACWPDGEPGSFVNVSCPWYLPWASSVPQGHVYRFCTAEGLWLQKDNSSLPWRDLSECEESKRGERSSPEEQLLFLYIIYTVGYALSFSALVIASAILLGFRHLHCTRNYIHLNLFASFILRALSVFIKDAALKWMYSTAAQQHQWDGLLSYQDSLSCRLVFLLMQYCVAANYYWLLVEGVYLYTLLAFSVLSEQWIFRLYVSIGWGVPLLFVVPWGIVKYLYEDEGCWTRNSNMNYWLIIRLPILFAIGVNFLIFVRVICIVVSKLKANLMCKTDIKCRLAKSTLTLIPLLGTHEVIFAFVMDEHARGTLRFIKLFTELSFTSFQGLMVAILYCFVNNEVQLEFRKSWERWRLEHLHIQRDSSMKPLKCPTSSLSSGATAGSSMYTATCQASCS

As a reminder, the EC50 is the concentration at which the effect is half-maximal. As for `O=C(Nc1ccc2c(c1)nc(CN1CCC(c3cccc(OCc4ccc(Cl)cc4F)n3)CC1)n2C[C@@H]1CCO1)C1CCCOC1` (single isomer, unassigned) [Compound 154c], the concentration for a half-maximal effect (EC50) was found to be 1.5 nM.

`CC1(c2ccc(Cl)cn2)Oc2cccc(C3CCN(Cc4nc5cc(-c6nnc(C7CC7)[nH]6)cnc5n4C[C@@H]4CCO4)CC3)c2O1` (stereo partly drawn) [Compound 268a, 5-chloro-2-[4-(1-{[6-(5-cyclopropyl-4H-1,2,4-triazol-3-yl)-3-{[(2S)-oxetan-2-yl]methyl}-3H-imidazo[4,5-b]pyridin-2-yl]methyl}piperidin-4-yl)-2-methyl-2H-1,3-benzodioxol-2-yl]pyridine] displayed an EC50 of 4.2 nM. Compared with the last compound, the EC50 is about 2.8-fold higher.

In turn, `Fc1cc(Cl)ccc1COc1nc(C2CCN(Cc3nc4cc(-c5nnc(C(F)(F)F)[nH]5)cnc4n3C[C@@H]3CCO3)CC2)ncc1F` [Compound 504a, 4-[(4-chloro-2-fluorophenyl)methoxy]-5-fluoro-2-{1-[(3-{[(2S)-oxetan-2-yl]methyl}-6-[5-(trifluoromethyl)-4H-1,2,4-triazol-3-yl]-3H-imidazo[4,5-b]pyridin-2-yl)methyl]piperidin-4-yl}pyrimidine] displayed an EC50 of 0.092 nM.

`CC1(c2ccc(Cl)cn2)Oc2cccc(C3CCN(Cc4nc5cc(-c6n[nH]c(C(F)(F)F)n6)cnc5n4C[C@@H]4CCO4)CC3)c2O1` (mixture of isomers) [Compound 333a, 5-chloro-2-(2-methyl-4-{1-[(3-{[(2S)-oxetan-2-yl]methyl}-6-[5-(trifluoromethyl)-4H-1,2,4-triazol-3-yl]-3H-imidazo[4,5-b]pyridin-2-yl)methyl]piperidin-4-yl}-2H-1,3-benzodioxol-2-yl)pyridine] returned an EC50 of 0.03 nM.

Compound `O=C1NCCN1c1ccc2c(c1)nc(CN1CCC(c3cccc(OCc4ccc(Cl)cc4F)n3)CC1)n2C[C@@H]1CCO1` [Compound 123a, 1-{2-[(4-{6-[(4-chloro-2-fluorophenyl)methoxy]pyridin-2-yl}piperidin-1-yl)methyl]-1-{[(2S)-oxetan-2-yl]methyl}-1H-1,3-benzodiazol-5-yl}imidazolidin-2-one] displayed an EC50 of 4 nM.

As for `N#Cc1nnc(-c2cc3nc(CN4CCC(c5cccc(OCc6ccc(Cl)cc6F)n5)CC4)n(C[C@@H]4CCO4)c3nn2)[nH]1` [Compound 526a, 5-{6-[(4-{6-[(4-chloro-2-fluorophenyl)methoxy]pyridin-2-yl}piperidin-1-yl)methyl]-7-{[(2S)-oxetan-2-yl]methyl}-7H-imidazo[4,5-c]pyridazin-3-yl}-4H-1,2,4-triazole-3-carbonitrile], the EC50 was found to be 0.017 nM. Compared with the last compound, the EC50 is about 240-fold lower.

With `CC1(c2ccc(Cl)cc2F)Oc2c(F)ccc(C3CCN(Cc4nc5cc(-c6nnc(C(F)(F)F)[nH]6)ncc5n4C[C@@H]4CCO4)CC3)c2O1` (stereo partly drawn) [Compound 459a, 4-[2-(4-chloro-2-fluorophenyl)-7-fluoro-2-methyl-2H-1,3-benzodioxol-4-yl]-1-[(3-{[(2S)-oxetan-2-yl]methyl}-6-[5-(trifluoromethyl)-4H-1,2,4-triazol-3-yl]-3H-imidazo[4,5-c]pyridin-2-yl)methyl]piperidine], the EC50 was 0.0088 nM.

In the case of `CNC(=O)Nc1ccc2c(c1)nc(CN1CCC(c3cccc(OCc4ccc(Cl)cc4F)n3)CC1)n2C[C@@H]1CCO1` [Compound 145a, 1-{2-[(4-{6-[(4-chloro-2-fluorophenyl)methoxy]pyridin-2-yl}piperidin-1-yl)methyl]-1-{[(2S)-oxetan-2-yl]methyl}-1H-1,3-benzodiazol-5-yl}-3-methylurea], a half-maximal response (EC50) required 0.16 nM.

For the compound `CC1(c2ccc(Cl)cc2F)Oc2cccc(C3CCN(Cc4nc5cc(-c6nnc(S(C)(=O)=O)[nH]6)ccc5n4C[C@@H]4CCO4)CC3)c2O1` (stereo partly drawn) [Compound 253a, 2-({4-[2-(4-chloro-2-fluorophenyl)-2-methyl-2H-1,3-benzodioxol-4-yl]piperidin-1-yl}methyl)-5-(5-methanesulfonyl-4H-1,2,4-triazol-3-yl)-1-{[(2S)-oxetan-2-yl]methyl}-1H-1,3-benzodiazole], the response was half-maximal at 0.65 nM (EC50).

As for `CC1(c2ccc(Cl)cn2)Oc2cccc(C3CCN(Cc4nc5cc(-c6nnc(C(F)(F)F)[nH]6)ccc5n4CC4(C#N)CC4)CC3)c2O1` (stereo not shown) [Compound 415, 1-{[2-({4-[2-(5-chloropyridin-2-yl)-2-methyl-2H-1,3-benzodioxol-4-yl]piperidin-1-yl}methyl)-5-[5-(trifluoromethyl)-4H-1,2,4-triazol-3-yl]-1H-1,3-benzodiazol-1-yl]methyl}cyclopropane-1-carbonitrile], the concentration giving a half-maximal response (EC50) came to 0.14 nM.

As for `CC1(C(=O)Nc2ccc3c(c2)nc(CN2CCC(c4cccc(OCc5ccc(Cl)cc5F)n4)CC2)n3C[C@@H]2CCO2)CCCCO1` (stereo partly drawn) [Compound 183a, N-{2-[(4-{6-[(4-chloro-2-fluorophenyl)methoxy]pyridin-2-yl}piperidin-1-yl)methyl]-1-{[(2S)-oxetan-2-yl]methyl}-1H-1,3-benzodiazol-5-yl}-2-methyloxane-2-carboxamide], the EC50 turned out to be 4 nM.

For `C[C@H]1CN(c2nc(OCc3ccc(Cl)cc3F)ccc2F)CCN1Cc1nc2cc(-c3nnc(C(F)(F)F)[nH]3)nnc2n1C[C@@H]1CCO1` [Compound 514a, (2S)-4-{6-[(4-chloro-2-fluorophenyl)methoxy]-3-fluoropyridin-2-yl}-2-methyl-1-[(7-{[(2S)-oxetan-2-yl]methyl}-3-[5-(trifluoromethyl)-4H-1,2,4-triazol-3-yl]-7H-imidazo[4,5-c]pyridazin-6-yl)methyl]piperazine], the EC50 came out at 0.071 nM.

`Cc1cncc(C)c1C(=O)Nc1ccc2c(c1)nc(CN1CCC(c3cccc(OCc4ccc(Cl)cc4F)n3)CC1)n2C[C@@H]1CCO1` [Compound 191a, N-{2-[(4-{6-[(4-chloro-2-fluorophenyl)methoxy]pyridin-2-yl}piperidin-1-yl)methyl]-1-{[(2S)-oxetan-2-yl]methyl}-1H-1,3-benzodiazol-5-yl}-3,5-dimethylpyridine-4-carboxamide] registered a concentration giving a half-maximal response (EC50) of 8.8 nM. Against the preceding compound, the EC50 is about 120-fold higher.

Compound `O=C(O)Cc1ccc2c(c1)nc(CN1CCC(c3cccc(OCc4ccc(Cl)cc4F)n3)CC1)n2C[C@@H]1CCO1` [Compound 110a, (S)-2-(2-((4-(6-((4-chloro-2-fluorobenzyl)oxy)pyridin-2-yl)piperidin-1-yl)methyl)-1-(oxetan-2-ylmethyl)-1H-benzo[d]imidazol-5-yl)acetic acid] had an EC50 of 15.9 nM.

On to `C[C@]1(c2ccc(Cl)cn2)Oc2cccc(C3CCN(Cc4nc5cc(-c6nnc(C#N)[nH]6)nnc5n4C[C@@H]4CCO4)CC3)c2O1` [Compound 482a, 5-[6-({4-[(2S)-2-(5-chloropyridin-2-yl)-2-methyl-2H-1,3-benzodioxol-4-yl]piperidin-1-yl}methyl)-7-{[(2S)-oxetan-2-yl]methyl}-7H-imidazo[4,5-c]pyridazin-3-yl]-4H-1,2,4-triazole-3-carbonitrile], for which the EC50 stood at 0.032 nM. This EC50 is about 500-fold lower than that of the compound before.

Compound `Cc1cnc(-c2ccc3c(c2)nc(CN2CCC(c4cccc5c4O[C@@](C)(c4ccc(Cl)cc4F)O5)CC2)n3C[C@@H]2CCO2)nc1` [Compound 236a, 2-((4-((S)-2-(4-chloro-2-fluorophenyl)-2-methylbenzo[d][1,3]dioxol-4-yl)piperidin-1-yl)methyl)-5-(5-methylpyrimidin-2-yl)-1-(((S)-oxetan-2-yl)methyl)-1H-benzo[d]imidazole] registered an EC50 of 2 nM.

With `C[C@]1(c2ccc(Cl)cc2F)Oc2cccc(C3CCN(Cc4nc5cc(-c6noc(=O)[nH]6)cnc5n4CC4(C#N)CC4)CC3)c2O1` [Compound 334a, 1-{[2-({4-[(2S)-2-(4-chloro-2-fluorophenyl)-2-methyl-2H-1,3-benzodioxol-4-yl]piperidin-1-yl}methyl)-6-(5-oxo-4,5-dihydro-1,2,4-oxadiazol-3-yl)-3H-imidazo[4,5-b]pyridin-3-yl]methyl}cyclopropane-1-carbonitrile], the EC50 was determined as 0.25 nM. This EC50 lies about 8-fold lower than the previous one.

`O=C(Nc1ccc2c(c1)nc(CN1CCC(c3cccc(OCc4ccc(Cl)cc4F)n3)CC1)n2C[C@@H]1CCO1)C(F)n1cccn1` (stereo partly drawn) [Compound 194a, N-{2-[(4-{6-[(4-chloro-2-fluorophenyl)methoxy]pyridin-2-yl}piperidin-1-yl)methyl]-1-{[(2S)-oxetan-2-yl]methyl}-1H-1,3-benzodiazol-5-yl}-2-fluoro-2-(1H-pyrazol-1-yl)acetamide] had an EC50 of 0.47 nM.

`N#Cc1ccc(COc2nc(C3CCN(Cc4nc5cc(-c6nnc(C(F)(F)F)[nH]6)ncc5n4C[C@@H]4CCO4)CC3)ncc2F)c(F)c1` [Compound 509a, 3-fluoro-4-{[(5-fluoro-2-{1-[(3-{[(2S)-oxetan-2-yl]methyl}-6-[5-(trifluoromethyl)-4H-1,2,4-triazol-3-yl]-3H-imidazo[4,5-c]pyridin-2-yl)methyl]piperidin-4-yl}pyrimidin-4-yl)oxy]methyl}benzonitrile]: the EC50 turned out to be 0.074 nM.

`CC1(c2ccc(C#N)cc2F)Oc2cccc(C3CCN(Cc4nc5cc(-c6nnc(C(F)(F)F)[nH]6)ccc5n4C[C@@H]4CCO4)CC3)c2O1` (stereo partly drawn) [Compound 261a, 3-fluoro-4-(2-methyl-4-{1-[(1-{[(2S)-oxetan-2-yl]methyl}-5-[5-(trifluoromethyl)-4H-1,2,4-triazol-3-yl]-1H-1,3-benzodiazol-2-yl)methyl]piperidin-4-yl}-2H-1,3-benzodioxol-2-yl)benzonitrile] showed an EC50 of 0.018 nM.

Consider `O=C(Nc1ccc2c(c1)nc(CN1CCC(c3cccc(OCc4ccc(Cl)cc4F)n3)CC1)n2C[C@@H]1CCO1)C1CCO1` (stereo partly drawn) [Compound 129a, N-{2-[(4-{6-[(4-chloro-2-fluorophenyl)methoxy]pyridin-2-yl}piperidin-1-yl)methyl]-1-{[(2S)-oxetan-2-yl]methyl}-1H-1,3-benzodiazol-5-yl}oxetane-2-carboxamide], for which the EC50 was 0.56 nM.

Consider `O=C(Nc1ccc2c(c1)nc(CN1CCC(c3cccc(OCc4ccc(Cl)cc4F)n3)CC1)n2C[C@@H]1CCO1)C1(C2CC2)CCCO1` (stereo partly drawn) [Compound 199a, N-{2-[(4-{6-[(4-chloro-2-fluorophenyl)methoxy]pyridin-2-yl}piperidin-1-yl)methyl]-1-{[(2S)-oxetan-2-yl]methyl}-1H-1,3-benzodiazol-5-yl}-2-cyclopropyloxolane-2-carboxamide], for which it took 7.4 nM to reach a half-maximal effect (EC50).
